Measured values from article PMC10786919, “Design-rules for stapled peptides with in vivo activity and their application to Mdm2/X antagonists” (Nature Communications, 2024).
In brackets after ≈: the same amount, converted by molar mass. Read-outs that look alike come from different tables or passages of the source. Positions of bridges follow the written chain, without caps; N, C: chain ends. Non-standard residues stand in square brackets, D forms with d. Residues, ends and D or L forms follow the SMILES beside them. Lys(N3) = [N-]=[N+]=NCCCC[C@H](N)C(=O)O; 2Nal = N[C@@H](Cc1ccc2ccccc2c1)C(=O)O; Gla = N[C@@H](CC(C(=O)O)C(=O)O)C(=O)O; R8 = C=CCCCCCC[C@@](C)(N)C(=O)O; Cba = N[C@@H](CC1CCC1)C(=O)O; S5 = C=CCCC[C@](C)(N)C(=O)O; βAla = NCCC(=O)O

What was measured:
[1] = test system: Jump-In T-REx CHO-K1 BLA cells; experiment: cells; assay type: cell-based; details: for EC50: read-out: TETCHO: Counterscreen EC50
[2] = test system: p53 responsive β-lactamase reporter in HCT116 cells; experiment: cells; assay type: cell-based
Summary of the method: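 HCT116 cells stably carrying a p53-responsive β-lactamase reporter, seeded at 8000 cells/well, with 0.5% DMSO final. Reporter activity read by ToxBLAzer Dual Screen. Values are geometric means of at least three biological replicates.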

HCT116 cells = experiment: Lactate dehydrogenase (LDH) release assay; assay type: cell-based
Summary of the method: (§1)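 HCT116 cells stably carrying a p53-responsive β-lactamase reporter, seeded at 8000 cells/well, exposed to compound with 0.5% final DMSO. LDH release read with the CytoTox-ONE membrane integrity kit. Values are geometric means of at least three biological replicates.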

[3] = Lactate dehydrogenase (LDH) release assay; assay type: cell-based
Summary of the method: as §1

human Mdm2 1–125 = target: T1, human Mdm2 1–125 (Homo sapiens, UniProt Q00987); experiment: Mdm2 binding by competitive fluorescence anisotropy assay (FP binding)
T1 construct: GST (N); His6 (internal); TEV cleavage site (ENLYFQG) (internal); made in house; host or cells: BL21 (DE3) Rosetta T1R Escherichia coli
T1 sequence (Q00987 with tags, fused parts or gaps): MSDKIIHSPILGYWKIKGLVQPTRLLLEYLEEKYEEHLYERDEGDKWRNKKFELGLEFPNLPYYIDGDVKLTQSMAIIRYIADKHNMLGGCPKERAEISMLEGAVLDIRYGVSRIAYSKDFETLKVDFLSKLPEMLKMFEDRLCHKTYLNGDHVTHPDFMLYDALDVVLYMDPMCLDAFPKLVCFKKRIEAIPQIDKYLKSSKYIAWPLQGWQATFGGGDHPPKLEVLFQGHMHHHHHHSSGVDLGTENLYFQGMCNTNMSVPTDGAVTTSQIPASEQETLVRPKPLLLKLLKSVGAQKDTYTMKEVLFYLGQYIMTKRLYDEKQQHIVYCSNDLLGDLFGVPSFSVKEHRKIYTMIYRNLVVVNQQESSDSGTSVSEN
From the text: The TEV (tobacco etch virus) cleavage site was changed from ENLYFQS to ENLYFQG to give a fusion protein with the following sequence:
[P] is the protein concentration (Mdm2), [L] is the labeled peptide concentration, r is the anisotropy measured, r0 is the anisotropy of the free peptide, rb is the anisotropy of the Mdm2–FAM-labeled peptide complex, Kd is the dissociation constant, [L]t is the total FAM labeled peptide concentration, and [P]t is the total Mdm2 concentration. […] This value was then used to determine apparent Kd values of the respective competing ligands in subsequent competition assays in fluorescence anisotropy experiments.
The competing molecules were then titrated against the complex of the FAM-labeled peptide and protein. Apparent Kd values were determined by fitting the experimental data to equations shown below:2 r=ro+(rb−ro)×2(d^2−3e)cos(θ/3)−9/3Kd1+2(d^2−3e)cos(θ/3)−d 3 d=Kd1+Kd2+[L]st+[L]t−Pt 4 e=Lt−PtKd1+Lst+PtKd2+Kd1Kd2 5 f=−Kd1Kd2[P]t 6 θ=arcos−2d^3+9de−27f/2(d^2−3e)^3
[L]st and [L]t denote labeled ligand and total unlabeled ligand input concentrations, respectively. Kd2 is the dissociation constant of the interaction between the unlabeled ligand and the protein. In all competition experiments, it is assumed that [P]t > [L]st, otherwise considerable amounts of free labeled ligand would always be present and would interfere with measurements. […] The FAM-labeled peptide was dissolved in dimethyl sulfoxide (DMSO) at 1 mM and diluted into experimental buffer. Readings were carried out with an Envision Multilabel Reader (PerkinElmer). […] Curve-fitting was carried out using Prism 4.0 (GraphPad). […] Negative control titrations of the ligands under investigation were also carried out with the fluorescently labeled peptide (in the absence of Mdm2) to ensure no interactions were occurring between the ligands and the FAM-labeled peptide. […] Measurements were taken a minimum of three times (biological replicates) and values are reported as geometric means of the replicates.

[4] = Solubility assay (kinetic solubility, PBS pH 7); assay type: physicochemical; details: pH 7, PBS; for solubility kinetic: pH 7, aqueous buffer, kinetic from dmso stock, read-out: Solubility
Summary of the method: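 Std: 10 mM stock → 100 µM in ACN/MeOH/DMSO (10:80:10). Sol. [µM] = (sample peak area / std peak area) × std conc.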

EPSA = assay type: physicochemical
[5] = Experimental LogD (partition coefficient); details: for logD: not stated, Partition Coeff LogD
Ca Ski cell line = details: Ca Ski
Summary of the method: (§2)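 Compound dilution series (10 points, 3-fold, 10 mM top stock in DMSO) tested on overnight-plated Ca Ski cells in RPMI1640/10% FBS and on blasticidin-selected p53RE-bla HCT-116 cells in McCoy's 5A; read-out was CellTiter-Glo 2.0 luminescence after room-temperature equilibration.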

[6] = test system: CellSensor p53RE-bla HCT-116 Cell Line; details: read-out: Proliferation EC50 HCT116 (On-target); HCT116
Summary of the method: as §2

[7] = Nanoclick permeability assay
Summary of the method: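 Azido-peptide permeability was read as loss of NanoBRET signal (donor 450 nm, acceptor 610 nm) after adding NanoBret618-azide at 10 μM final.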

[8] = 0% FBS 4Hr, read-out: p53 reporter assay EC50
[9] = 0% FBS 4Hr, read-out: p53 reporter assay: EC50

Compound | TETCHO: Counterscreen % Effect ([1]; 0% FBS 4Hr) [%] | EC50 ([1]; 0% FBS 4Hr) [µM] | EC50 [2, 8] [µM] | LDH: Cytotoxicity assay % Effect (HCT116 cells) [%] | EC50 ([3]; LDH: Cytotoxicity assay EC50) [µM] | Kd (human Mdm2 1–125; read-out: FP binding assay KD) [nM] | p53 reporter assay: % Effect ([2]; 0% FBS 4Hr) [%] | EC50 [2, 9] [µM] | solubility kinetic [4] [µM] | EPSA (EPSA; EPSA) [A^2] | logD [5] | other results
CC(=O)N[C@@H](CCCCN)C(=O)N[C@@H](CCCCN)C(=O)N[C@H](C(=O)N[C@@H](CO)C(=O)N[C@@H](Cc1ccccc1)C(=O)N[C@]1(C)CCCCCCC=CCCC[C@@](C)(C(N)=O)NC(=O)[C@H](CC(C)C)NC(=O)[C@H](CC(C)C)NC(=O)[C@H](C)NC(=O)[C@H](Cc2c[nH]c3ccccc23)NC(=O)[C@H](Cc2ccc(O)cc2)NC(=O)[C@H](CCC(=O)O)NC1=O)[C@@H](C)O [MP-142] | 22.09 | 20.2 | 15.2 | 72.79 | 46.7 | 42.2 |  |  |  |  |  | 
CC(=O)N[C@H](C(=O)N[C@@H](CO)C(=O)N[C@@H](Cc1ccc2ccccc2c1)C(=O)N[C@]1(C)CCCCCCC=CCCC[C@@](C)(C(=O)N[C@@H](CO)C(=O)N[C@@H](C)C(=O)N[C@@H](C)C(=O)N[C@@H](CCC(=O)O)C(N)=O)NC(=O)[C@H](CC(C)C)NC(=O)[C@H](CC(C)C)NC(=O)[C@H](C)NC(=O)[C@H](Cc2c[nH]c3ccccc23)NC(=O)[C@H](Cc2ccc(O)cc2)NC(=O)[C@H](CCC(=O)O)NC1=O)[C@@H](C)O [MP-144] (Ac-TS[2Nal][R8]EYWALL[S5]SAAE-NH2; staple 4-11) | -3.58 | > 50 | 5.01 | 83.26 | 15.6 | 46700 |  |  |  |  |  | 
CC(=O)N[C@H](C(=O)N[C@@H](CO)C(=O)N[C@@H](Cc1ccc2ccccc2c1)C(=O)N[C@]1(C)CCCCCCC=CCCC[C@@](C)(C(N)=O)NC(=O)[C@H](CC(C)C)NC(=O)[C@H](CC(C)C)NC(=O)[C@H](C)NC(=O)[C@H](Cc2c[nH]c3ccccc23)NC(=O)[C@H](Cc2ccc(O)cc2)NC(=O)[C@H](CCC(=O)O)NC1=O)[C@@H](C)O [MP-145] (Ac-TS[2Nal][R8]EYWALL[S5]-NH2; staple 4-11) | 30.02 | > 50 | 23.8 | 48.85 | 36.5 | 4330 |  |  |  |  |  | 
CC(=O)N[C@H](C(=O)N[C@@H](CO)C(=O)N[C@@H](Cc1ccc2ccccc2c1)C(=O)N[C@]1(C)CCCCCCC=CCCC[C@@](C)(C(=O)N[C@@H](CCC(=O)O)C(N)=O)NC(=O)[C@H](CC(C)C)NC(=O)[C@H](CC(C)C)NC(=O)[C@H](C)NC(=O)[C@H](Cc2c[nH]c3ccccc23)NC(=O)[C@H](Cc2ccc(O)cc2)NC(=O)[C@H](CCC(=O)O)NC1=O)[C@@H](C)O [MP-146] (Ac-TS[2Nal][R8]EYWALL[S5]E-NH2; staple 4-11) | 1.205 | > 50 | 43.3 | 16.49 | > 50 | 499 |  |  |  |  |  | 
CC(=O)N[C@H](C(=O)N[C@@H](CO)C(=O)N[C@@H](Cc1ccccc1)C(=O)NC(C)(C)C(=O)N[C@@H](CCC(=O)O)C(=O)N[C@@H](Cc1ccc(O)cc1)C(=O)N[C@@H](Cc1c[nH]c2ccccc12)C(=O)N[C@@H](C)C(=O)N[C@@H](CC(C)C)C(=O)N[C@@H](CC(C)C)C(=O)NC(C)(C)C(N)=O)[C@@H](C)O [MP-153] | 16.18 | > 50 | 34.2 | 0.7534 | > 50 | 133 |  |  |  |  |  | 
CC(=O)N[C@@H](CC(C)C)C(=O)N[C@H](C(=O)N[C@@H](Cc1ccccc1)C(=O)N[C@]1(C)CCCCCCC=CCCC[C@@](C)(C(=O)N[C@@H](CO)C(=O)N[C@@H](C)C(=O)N[C@@H](C)C(N)=O)NC(=O)[C@H](CC(C)C)NC(=O)[C@H](CCC(N)=O)NC(=O)[C@H](C)NC(=O)[C@H](Cc2c[nH]c3ccccc23)NC(=O)[C@H](Cc2ccc(O)cc2)NC(=O)[C@H](CCC(=O)O)NC1=O)[C@@H](C)O [MP-154] | 205.4 | 27.1 |  |  |  | 44.4 | 150.7 | 0.417 | 146 (≈ 254 µg/mL) | 199 | 2.87 | LDH: Cytotoxicity assay: % Effect (HCT116 cells): 34.9%; EC50 ([3]; LDH: Cytotoxicity assay: EC50): > 50.7 µM
CC(=O)N[C@@H](CC(C)C)C(=O)N[C@H](C(=O)N[C@@H](Cc1ccccc1)C(=O)N[C@]1(C)CCCCCCC=CCCC[C@@](C)(C(=O)N[C@@H](CO)C(=O)N[C@@H](C)C(=O)N[C@@H](C)C(N)=O)NC(=O)[C@H](CC(C)C)NC(=O)[C@H](CCC(N)=O)NC(=O)[C@H](C)NC(=O)[C@H](Cc2c[nH]c3ccccc23)NC(=O)[C@H](Cc2ccc(O)cc2)NC(=O)[C@H](CCC(=O)O)NC1=O)[C@@H](C)O [MP-211] | 40.04 | 48.5 |  |  |  | 67.8 | 96.16 | 0.731 |  |  |  | TETCHO: Counterscreen % Effect ([1]; 0% FBS 16Hr): 114.5%; EC50 ([1]; 0% FBS 16Hr): 25.2 µM; p53 reporter assay: % Effect ([2]; 0% FBS 16Hr): 100.4%; EC50 ([2]; 0% FBS 16Hr, read-out: p53 reporter assay: EC50): 1.48 µM; Solubility [4]: 177; EPSA (EPSA): 201; Partition Coeff LogD [5]: 2.82
CC(=O)N[C@@H](CCCCN=[N+]=[N-])C(=O)NCCC(=O)N[C@@H](CC(C)C)C(=O)N[C@H](C(=O)N[C@@H](Cc1ccccc1)C(=O)N[C@]1(C)CCCCCCC=CCCC[C@@](C)(C(=O)N[C@@H](CC(C(=O)O)C(=O)O)C(=O)N[C@@H](C)C(=O)N[C@@H](C)C(=O)N[C@@H](C)C(=O)N[C@@H](C)C(=O)N[C@H](C)C(N)=O)NC(=O)[C@H](CC2CCC2)NC(=O)[C@H](CCC(N)=O)NC(=O)[C@H](C)NC(=O)[C@H](Cc2c[nH]c3ccccc23)NC(=O)[C@H](Cc2ccc(O)cc2)NC(=O)[C@H](CCC(=O)O)NC1=O)[C@@H](C)O [MP-897] (Ac-[Lys(N3)][βAla]LTF[R8]EYWAQ[Cba][S5][Gla]AAAA[dA]-NH2; staple 6-13) |  |  |  |  |  |  |  |  | 163 (≈ 370 µg/mL) | 257 | 2.25 | Proliferation % inhibition at 50 µM Ca Ski (Ca Ski cell line; 50 µM): -19.1%; EC50 (Ca Ski cell line; read-out: Proliferation EC50 Ca Ski (Off-target)): > 49.8 µM; EC50 [6]: 790 nM; cell entry EC50 [7]: 2270 nM; LDH: Cytotoxicity assay: % Effect (HCT116 cells; 0% FBS 4Hr): 6.465%; LDH: Cytotoxicity assay: % Effect (HCT116 cells; 10% FBS 16Hr): 20.53%; EC50 ([3]; 0% FBS 4Hr, read-out: LDH: Cytotoxicity assay: EC50): > 50.7 µM; EC50 ([3]; 10% FBS 16Hr, read-out: LDH: Cytotoxicity assay: EC50): > 50.7 µM; Kd (human Mdm2 1–125; Binding KD): < 1 nM
CC(=O)N[C@@H](CCCCN)C(=O)NCCCCCC(=O)N[C@H](C(=O)N[C@@H](CO)C(=O)N[C@@H](Cc1ccccc1)C(=O)N[C@]1(C)CCCCCCC=CCCC[C@@](C)(C(=O)N[C@@H](CCC(=O)O)C(=O)N[C@@H](CC(N)=O)C(=O)N[C@@H](Cc2ccccc2)C(N)=O)NC(=O)[C@H](CC(C)C)NC(=O)[C@H](CC(C)C)NC(=O)[C@H](C)NC(=O)[C@H](Cc2c[nH]c3ccccc23)NC(=O)[C@H](Cc2ccc(O)cc2)NC(=O)[C@H](CCC(=O)O)NC1=O)[C@@H](C)O [MP-6210] | 57.09 | 44 |  |  |  | 67.4 | 115.9 | 7.41 | 74 (≈ 155 µg/mL) | 255 | 2.55 | LDH: Cytotoxicity assay: % Effect (HCT116 cells): 13.27%; EC50 ([3]; LDH: Cytotoxicity assay: EC50): > 50.7 µM
